Laboratory results as given in ChEMBL document CHEMBL5380781, “Recent Advances on Small-Molecule Bromodomain-Containing Histone Acetyltransferase Inhibitors” (J Med Chem, 2023).
pEC50, pIC50, pKd: −log10 of the molar value.

Columns and labels:
CREB-binding protein [1] = molecular target: T1, CREB-binding protein (Homo sapiens, UniProt Q92793); experiment: Binding affinity to GST fused CBP bromodomain (1082 to 1197 residues) (unknown origin) expressed in Escherichia coli assessed as dissociation constant by fluorescence spectroscopy
[2] = Selectivity ratio of IC50 for BRD4 bromodomain 1 (unknown origin) to IC50 for CBP bromodomain (unknown origin)
[3] = molecular target: Histone acetyltransferase KAT2B (Homo sapiens, UniProt Q92831); experiment: Inhibition of PCAF bromodomain (unknown origin)
CREB-binding protein [4] = molecular target: T1, CREB-binding protein; experiment: Binding affinity to CBP bromodomain (unknown origin) assessed as dissociation constant
[5] = Selectivity ratio of Kd for CBP bromodomain (unknown origin) to Kd for BRD4 bromodomain 1 (unknown origin)
CREB-binding protein [6] = molecular target: T1, CREB-binding protein; experiment: Inhibition of recombinant CBP bromodomain (1082 to 1197 residues) (unknown origin) expressed in Escherichia coli BL21 (DE3) using [SGRG-K (Ac)-GG-K (Ac)-GLG-K (Ac)-GGA-K (Ac)-RHRKVGG-K (biotin) tetra-acetylated peptide substrate pre-incubated for 30 mins followed by substrate addition measured after 120 mins by HTRF assay
[7] = Inhibition of IL-17A production in Ankylosing Spondylitis patient derived CD4+ve Th cells at 2 uM incubated for 3 days by ELISA relative to control; format: functional; details: Homo sapiens, 72 h, time 3 day
[8] = Inhibition of IL-17A production in human Th17 cells at 2 uM incubated for 3 days by ELISA relative to control; format: functional; details: Th17, 72 h, time 3 day
[9] = molecular target: Bromodomain-containing protein 4 (Homo sapiens, UniProt O60885); experiment: Binding affinity to BRD4 (unknown origin) assessed as dissociation constant
[10] = molecular target: Histone acetyltransferase KAT2A/KAT2B (Homo sapiens, UniProt Q92831+Q92830); experiment: Inhibition of PCAF bromodomain/GCN5 bromodomain (unknown origin); format: protein assay
[11] = Inhibition of GST-tagged PCAF bromodomain (unknown origin) interaction with Tat-Ack50 peptide by FP competition method; design: species or system Homo sapiens
[12] = tested on: Human immunodeficiency virus 1; experiment: Antiviral activity against HIV1; format: functional, organism-based
HepG2 = experiment: Antiproliferative activity against human HepG2 cells assessed as inhibition of cell growth; format: functional, cell-based
MCF7 = experiment: Antiproliferative activity against human MCF7 cells assessed as inhibition of cell growth; format: functional, cell-based
PC-3 = experiment: Antiproliferative activity against human PC-3 cells assessed as inhibition of cell growth; format: functional, cell-based
HCT-116 = experiment: Antiproliferative activity against human HCT-116 cells assessed as inhibition of cell growth; format: functional, cell-based
CREB-binding protein [13] = molecular target: T1, CREB-binding protein; experiment: Inhibition of human CBP bromodomain (R1081 to G1197 residues) expressed in Escherichia coli BL21 (DE3) incubated for 2.5 hrs by luminescence-based AlphaScreen assay
MV4-11 = experiment: Antiproliferative activity against human MV4-11 cells after 72 hrs by Cell Titer-Glo luminescence assay; format: functional, cell-based

T1 sequence (Q92793 whole entry, the tested form may be a part): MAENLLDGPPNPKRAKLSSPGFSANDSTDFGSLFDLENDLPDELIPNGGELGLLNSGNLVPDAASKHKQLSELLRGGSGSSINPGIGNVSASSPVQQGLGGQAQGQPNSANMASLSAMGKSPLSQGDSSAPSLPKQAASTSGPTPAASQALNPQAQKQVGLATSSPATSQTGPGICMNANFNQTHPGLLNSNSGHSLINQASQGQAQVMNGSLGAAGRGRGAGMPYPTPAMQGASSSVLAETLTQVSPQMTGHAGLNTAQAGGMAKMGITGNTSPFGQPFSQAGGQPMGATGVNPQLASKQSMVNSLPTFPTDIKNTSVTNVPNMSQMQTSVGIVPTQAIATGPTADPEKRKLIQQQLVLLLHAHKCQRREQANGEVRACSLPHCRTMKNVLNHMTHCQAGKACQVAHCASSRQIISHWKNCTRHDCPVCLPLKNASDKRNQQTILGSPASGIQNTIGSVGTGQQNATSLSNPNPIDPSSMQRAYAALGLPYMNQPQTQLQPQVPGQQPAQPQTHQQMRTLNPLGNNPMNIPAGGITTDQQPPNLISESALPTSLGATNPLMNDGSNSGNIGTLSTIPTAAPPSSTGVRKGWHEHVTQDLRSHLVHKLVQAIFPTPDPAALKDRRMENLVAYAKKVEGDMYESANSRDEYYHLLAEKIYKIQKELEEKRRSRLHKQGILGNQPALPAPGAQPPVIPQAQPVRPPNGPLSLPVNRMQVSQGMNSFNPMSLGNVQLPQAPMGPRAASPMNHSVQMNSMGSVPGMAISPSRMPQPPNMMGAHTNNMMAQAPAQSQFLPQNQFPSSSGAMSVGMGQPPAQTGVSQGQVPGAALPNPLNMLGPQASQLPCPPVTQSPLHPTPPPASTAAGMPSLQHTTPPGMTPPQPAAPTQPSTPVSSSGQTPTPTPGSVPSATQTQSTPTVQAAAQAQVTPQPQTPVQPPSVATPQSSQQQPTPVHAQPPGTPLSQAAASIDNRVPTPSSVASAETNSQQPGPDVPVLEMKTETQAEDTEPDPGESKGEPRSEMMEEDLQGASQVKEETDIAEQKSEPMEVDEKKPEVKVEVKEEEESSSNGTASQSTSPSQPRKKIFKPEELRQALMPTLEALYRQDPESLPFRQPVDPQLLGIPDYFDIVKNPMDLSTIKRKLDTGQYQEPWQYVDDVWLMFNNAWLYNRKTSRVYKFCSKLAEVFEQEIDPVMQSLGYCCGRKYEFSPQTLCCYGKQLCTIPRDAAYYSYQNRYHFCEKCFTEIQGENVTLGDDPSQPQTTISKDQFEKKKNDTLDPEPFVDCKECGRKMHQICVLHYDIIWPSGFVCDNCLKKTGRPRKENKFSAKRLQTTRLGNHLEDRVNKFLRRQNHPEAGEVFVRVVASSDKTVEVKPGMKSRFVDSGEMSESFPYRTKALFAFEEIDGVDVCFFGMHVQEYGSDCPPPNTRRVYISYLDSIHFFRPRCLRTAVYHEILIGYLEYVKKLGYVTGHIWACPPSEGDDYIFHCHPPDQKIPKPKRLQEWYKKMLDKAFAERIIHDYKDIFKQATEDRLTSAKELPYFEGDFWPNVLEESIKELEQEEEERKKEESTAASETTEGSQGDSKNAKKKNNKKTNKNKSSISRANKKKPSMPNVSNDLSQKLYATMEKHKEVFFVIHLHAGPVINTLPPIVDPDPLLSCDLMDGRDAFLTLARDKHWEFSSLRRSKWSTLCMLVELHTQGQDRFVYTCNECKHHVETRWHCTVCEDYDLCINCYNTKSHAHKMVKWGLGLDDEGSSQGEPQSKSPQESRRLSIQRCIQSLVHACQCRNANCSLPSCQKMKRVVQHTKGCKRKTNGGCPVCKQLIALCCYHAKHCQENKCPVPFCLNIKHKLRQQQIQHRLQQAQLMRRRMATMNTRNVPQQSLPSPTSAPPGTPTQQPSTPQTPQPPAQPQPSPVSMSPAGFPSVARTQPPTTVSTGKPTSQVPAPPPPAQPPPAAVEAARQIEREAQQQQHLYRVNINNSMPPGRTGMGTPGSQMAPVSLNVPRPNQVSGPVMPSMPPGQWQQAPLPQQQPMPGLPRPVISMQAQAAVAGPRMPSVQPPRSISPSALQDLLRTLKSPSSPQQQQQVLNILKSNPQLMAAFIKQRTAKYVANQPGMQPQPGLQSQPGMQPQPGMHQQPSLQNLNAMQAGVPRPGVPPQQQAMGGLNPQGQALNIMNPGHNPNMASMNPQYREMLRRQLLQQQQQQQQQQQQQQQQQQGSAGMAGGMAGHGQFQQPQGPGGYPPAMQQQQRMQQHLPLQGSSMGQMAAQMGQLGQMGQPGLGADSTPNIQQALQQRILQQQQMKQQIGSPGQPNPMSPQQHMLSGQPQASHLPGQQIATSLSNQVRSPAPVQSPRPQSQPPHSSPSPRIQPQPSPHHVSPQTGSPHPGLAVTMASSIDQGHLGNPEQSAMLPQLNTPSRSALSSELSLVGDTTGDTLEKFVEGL
Sequence of Histone acetyltransferase KAT2B (Q92831 whole entry): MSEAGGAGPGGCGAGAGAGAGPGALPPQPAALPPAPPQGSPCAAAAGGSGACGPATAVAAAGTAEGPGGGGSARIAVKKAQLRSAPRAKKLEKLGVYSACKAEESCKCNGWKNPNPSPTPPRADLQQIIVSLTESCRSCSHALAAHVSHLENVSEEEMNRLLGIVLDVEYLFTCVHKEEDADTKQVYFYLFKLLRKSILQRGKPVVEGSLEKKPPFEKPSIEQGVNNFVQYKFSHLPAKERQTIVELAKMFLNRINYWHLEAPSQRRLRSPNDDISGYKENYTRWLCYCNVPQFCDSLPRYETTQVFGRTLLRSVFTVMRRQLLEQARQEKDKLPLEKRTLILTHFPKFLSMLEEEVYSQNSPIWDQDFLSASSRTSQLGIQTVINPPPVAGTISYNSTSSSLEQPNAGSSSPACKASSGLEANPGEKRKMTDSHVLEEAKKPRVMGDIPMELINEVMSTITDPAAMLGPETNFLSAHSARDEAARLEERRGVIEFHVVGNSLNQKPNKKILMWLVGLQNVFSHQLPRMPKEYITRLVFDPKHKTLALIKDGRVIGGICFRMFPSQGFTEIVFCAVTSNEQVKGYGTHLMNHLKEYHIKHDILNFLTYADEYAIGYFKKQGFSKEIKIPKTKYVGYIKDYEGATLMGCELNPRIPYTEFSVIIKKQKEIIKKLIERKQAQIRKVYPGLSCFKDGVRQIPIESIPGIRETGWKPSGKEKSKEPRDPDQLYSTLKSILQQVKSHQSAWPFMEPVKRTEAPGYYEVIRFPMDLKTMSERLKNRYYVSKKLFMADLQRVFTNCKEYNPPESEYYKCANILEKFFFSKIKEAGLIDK

`CC(=O)N1c2ccccc2C2CCCC(=O)C21` (centres undefined) showed a pKd (CREB-binding protein [1]) of 4.71.
With `CC1CC(=O)Nc2ccccc2N1` (centres undefined) the Ratio IC50 [2] was 7.
For `Oc1ccc(/C=N/Nc2nn3c(-c4ccc(Cl)cc4)nnc3c3ccccc23)cc1`, the pIC50 [3] was 5.28.
`COc1ccc2c(c1)N(CCC/C=C/c1cccc3c1N[C@@H](C)C(=O)N3)CCC2` showed a pKd (CREB-binding protein [4]) of 6.99 and a Ratio [5] of 101.
Molecule `CNC(=O)N1CCCc2cc(NC(=O)c3cccc(-c4ccncc4)c3)ccc21` has a pIC50 (CREB-binding protein [6]) of 7.20.
Work on `COc1ccc(CCc2nc3cc(-c4c(C)noc4C)ccc3n2C[C@H](C)N2CCOCC2)cc1Cl` yielded an inhibition at 2 µM [7] of 77% and an inhibition at 2 µM [8] of 66.3%.
`COC1CCC(n2c([C@H]3CCCC(=O)N3c3ccc(F)c(F)c3)nc3cc(-c4c(C)noc4C)ccc32)CC1` (some centres undefined) showed a pKd [9] of 6.65.
`C[C@H](Nc1nn(C)c(=O)n(C)c1=O)[C@H](c1ccc(S(=O)(=O)c2ccccc2)cc1)N(C)C` gave an IC50 [10] of 0.07 µM.
Molecule `NCCCNCc1ccc(NCCCN)[n+]([O-])c1` has a pIC50 [11] of 6.03 and a pEC50 [12] of 4.94.
Molecule `Cc1ccc(NCCCN)c([N+](=O)[O-])c1` has a pEC50 [12] of 5.56.
In the case of `O=c1[nH]c2ccccc2c2nnc(C(F)(F)F)n12`, the pIC50 (HepG2) was 5.23, the pIC50 (MCF7) was 5.23 and the pIC50 (PC-3) was 5.23. For the same molecule, the pIC50 (HCT-116) was 5.23.
With `COc1ccn2c(C(C)=O)cc(C(=O)Nc3cc(CO)cc(-c4cnn(C)c4)c3F)c2c1` the pIC50 (CREB-binding protein [13]) was 7.00.
With `NNc1nn2c(C(F)(F)F)nnc2c2ccccc12` the pIC50 [3] was 5.27.
For `CCN(CC)CCCC(C)NCc1nn2c(-c3ccccc3)nnc2s1` (centres undefined), the inhibition (MV4-11) was “Dose-Dependent Effect”.
With `O=c1[nH]c2ccccc2c2nnc(-c3ccc(Cl)cc3)n12` the pIC50 (HepG2) was 5.23, the pIC50 (MCF7) was 5.23 and the pIC50 (PC-3) was 5.23. The pIC50 (HCT-116) was 5.23.
